Measured values: patent publication US20180184644A1, “CELL STABILIZATION” (Biomatrica, Inc., priority 2013, published 2018)
Entries after “also recorded” stand apart in the source; their conditions may differ.

Experiments:
[1] = system: human neonatal fibroblasts; assay: Cell viability by ATP content of substantially dry stored human neonatal fibroblasts; format: cell-based; parameters: % CELL VIABILITY 24 hr / % CELL VIABILITY 48 hr / % CELL VIABILITY 120 hr: concentration or dose not given beside the values; conditions: for % CELL VIABILITY 24 hr / % CELL VIABILITY 48 hr / % CELL VIABILITY 120 hr: inhibitor in predehydration and rehydration formulation; for % CELL VIABILITY 24 hr: MCS dehydration formulation 41, dry stored 24 hr at ambient temperature; for % CELL VIABILITY 48 hr: MCS dehydration formulation 41, dry stored 48 hr at ambient temperature; for % CELL VIABILITY 120 hr: MCS dehydration formulation 41, dry stored 120 hr at ambient temperature
Description: ATP content may be determined using a Cell Titer-Glo Luminescent Cell viability Assay (Promega) in accordance with the manufacturer's instructions. The addition of the Cell Titer-Glo Luminescent reagent into the cells generates a luminescent signal proportional to the amount of intracellular ATP. The amount of ATP is directly proportional to the number of cells present in culture, and it is then a homogeneous method of determining the number of viable (metabolically active) cells in the rehydrated cell preparation.
Briefly, human neonatal fibroblasts were suspended in Cascade Media 106 and seeded as 100 ul cultures at a densities of 100-5000 cells per test in 96 well plates and incubated in an environment of ambient atmosphere while maintaining an elevated CO2 level (5%-10%) and temperature of 37 C with relative humidity of 85-95%. The culture is adjusted to specific composition of predehydration formulations and media specified concentration of each apoptosis inhibitor. The cells were incubated for a period of at least one hour but not more than 3 hours hr at 37° C. The predehydration formulation was thoroughly removed and 10-15 ul of MCS dehydration formulation 41 (Table 1) was added to each well. The cells were substantially air dried at 37 C, 5% CO2, 20% relative humidity over a period of 90 minutes, stored at ambient temperature for a period of 24, 48 or 120 hours. At the appropriate time, the substantially dry stored cells were rehydrated by treating with a rehydration formulation comprising the same concentration of apoptosis inhibitor in 100-200 μl of predehydration formulation. Cell viability was determined by measuring ATP content as described herein.

[2] = system: HeLa cells; assay: Cell viability by Trypan Blue method of substantially dry stored HeLa cells; format: cell-based
Description: Cell viability may be measured using a Trypan Blue staining procedure. […] Cell counting was performed in 9 mm KOVA glass slides 10 with Grid Chambers (Hycor) in triplicate under a Leitz Fluovert microscope. The percentage of cell survival is reported relative to untreated control cells. Briefly, HeLa cells were substantially dry stored using predetermined predehydration formulations (SC1, salubrinal and SC3, MLS-0315763) and a subset of the dehydration formulations set forth in Table 1 for a period of seven hours and then rehydrated using the rehydration formulations listed below (RC1, salubrinal and RC3, MLS-0315763). Cell viability was assessed seven days after rehydration using the Trypan Blue method. The results are shown in Table 3 and FIG. 3A and FIG. 3B.

[3] = system: Mammalian cells; conditions: trehalose-loaded dried cells stored for even few minutes; cited from earlier work

| SMILES | % CELL VIABILITY 24 hr [1] [%] | % CELL VIABILITY 48 hr [1] [%] | % CELL VIABILITY 120 hr [1] [%] | viable cells (in words) ([1]; by 24 hr of dry storage) | surviving / viable cells (in words) ([2]; HeLa cells, 7 hours dry storage, 7 days after rehydration) | % HeLa Cell Viability ([2]; dry stored seven hours, Trypan Blue seven days after rehydration) [%] | cell survival after dry storage (in words) [3] |
| --- | --- | --- | --- | --- | --- | --- | --- |
| C[S+]([O-])CCCCN=C=S [L-sulphurophane] | 98.8 | 65.3 | 50.9 | – | – | – | – |
| O=c1cc(N2CCOCC2)oc2c(-c3ccccc3)cccc12 [LY294002, 2-(4-morpholinyl)-8-phenyl-4H-1-benzopyran-4-one] | 83.8 | 85.9 | 98.7 | – | – | – | – |
| O=C(NOC[C@H](O)CO)c1ccc(F)c(F)c1Nc1ccc(I)cc1F [PD032591, N-[(2R)-2,3-dihydroxypropoxy]-3,4-difluoro-2-[(2-fluoro-4-iodophenyl)amino]-benzamide] | 100.0 | 85.1 | 95.7 | – | – | – | – |
| CO[C@H]1C[C@@H]2CC[C@@H](C)[C@@](O)(O2)C(=O)C(=O)N2CCCC[C@H]2C(=O)O[C@H]([C@H](C)C[C@@H]2CC[C@@H](O)[C@H](OC)C2)CC(=O)[C@H](C)/C=C(\C)[C@@H](O)[C@@H](OC)C(=O)[C@H](C)C[C@H](C)/C=C/C=C/C=C/1C [Rapamycin] | 88.4 | 73.2 | 90.0 | – | – | – | – |
| O=C(/C=C/c1ccccc1)NC(NC(=S)Nc1cccc2cccnc12)C(Cl)(Cl)Cl (stereo not shown) [Salubrinal] | 100.0 | 72.9 | 109.5 | – | – | – | – |
| OC[C@H]1O[C@H](O[C@H]2O[C@H](CO)[C@@H](O)[C@H](O)[C@H]2O)[C@H](O)[C@@H](O)[C@@H]1O [Trehalose] | 7.5 | 0.0 | 0.0 | little to no viable cells | did not yield in any viable cells; also recorded: did not yield any surviving cells | 0 | complete cell death |
